Laboratory results taken from patent US20250248979A1, “NOVEL GPX4 INHIBITORS AND USES THEREOF” (THE TRUSTEES OF COLUMBIA UNIVERSITY IN THE CITY OF NEW YORK, priority 2022, published 2025).

Target: T1, GPX4 (Homo sapiens, UniProt P36969)
T1 sequence (P36969 1-170 isoform P36969-2): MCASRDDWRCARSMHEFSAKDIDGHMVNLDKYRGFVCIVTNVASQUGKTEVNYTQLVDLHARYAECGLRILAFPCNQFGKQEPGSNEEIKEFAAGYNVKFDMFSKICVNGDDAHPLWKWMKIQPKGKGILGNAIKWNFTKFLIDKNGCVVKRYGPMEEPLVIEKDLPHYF
Assay: GPX4 activity assay in cell lysates (NADPH-coupled)
Type: biochemical
Set-up: endogenous in cells; host or cells: A-673 cell lysate
Conditions: not given
Experimental: Determination of GPX4 activity in cell lysates was performed as previously described by Roveri et al. 1994 with minor modifications. Briefly, the assay measures the consumption of NADPH, which has a characteristic absorbance at 340 nm, over time as a proxy for GPX4 activity. The rationale for this is that as GPX4 reduces phospholipid hydroperoxides, it oxidizes glutathione, which is then regenerated by glutathione reductase at the expense of NADPH. NADPH is added to the assay in excess such that the reduction of oxidized glutathione is not the rate-limiting reaction in the assay. Thus, the resulting reduction in NADPH absorbance over time reflects GPX4 activity.
The GPX4-specific substrate phosphatidylcholine hydroperoxide (PCOOH) was prepared by enzymatic hydroperoxidation. Specifically, 0.3 mM phosphatidylcholines (Sigma-Aldrich) were incubated with 0.7 mg soybean lipoxidase type IV (Sigma-Aldrich) in 22 mL of 0.2 M Tris-HCl pH 8.8 with 3 mM sodium deoxycholate at room temperature under continuous stirring for 30 minutes. A Sep-Pak C18 cartridge (Waters-Millipore) was pre-washed with methanol and equilibrated with water, then the substrate mixture was loaded. The column was washed with 10 volumes of water and PCOOH was eluted with 2 mL of methanol.
To prepare the cell lysate containing native GPX4, A-673 cells were cultured with 20 nM sodium selenite to confluency over two days then harvested and washed with cold PBS. Cells were then resuspended at 10 million cells per 1 mL LCW lysis buffer (0.5% peroxide-free Triton X-100, 0.5% sodium deoxycholate salt, 150 mM NaCl, 20 mM Tris-HCl pH 7.5, 10 mM EDTA, 30 mM sodium pyrophosphate, and complete protease inhibitor cocktail), vortexed for 30 seconds, and incubated on ice for 15 minutes. After lysis, the lysates were centrifuged at 14,000×g and 4° C. for 15 minutes. The supernatants were transferred to new pre-chilled tube and the debris pellet was discarded. The protein concentration in the lysate was determined for normalization using the BCA Protein Assay Kit (Pierce).
To measure GPX4 activity, 50 μL of cell lysate was combined with 200 μL activity assay buffer (0.1% Triton X-100, 100 mM Tris-HCl pH 8.0, 10 mM sodium azide, 5 mM EDTA, 0.6 IU/mL glutathione reductase, 0.5 mM NADPH and 3 mM GSH) and compounds of interest in a clear 96-well plate and incubated at 37° C. for 45 minutes. Compounds were dissolved in DMSO. All conditions were tested in triplicate. PCOOH substrate was added to the mixture to initiate GPX4 activity just before reading the plate. The absorbance of NADPH at 340 nm was monitored kinetically over time for 25 minutes. Buffer-only controls and controls without substrate containing only the methanol vehicle were performed to assess background and baseline signal. GPX4 activity was calculated as previously reported by Stolwijk et al. 2020 and results were analyzed in GraphPad Prism 9.

Compound	GPX4 inhibitory activity, result in words
C=CC(=O)OCC(C)(C)NC(=O)c1nn(C)c2cc(Br)ccc12 [QW-417]	inactive during GPX4 inhibition

Same assay, conditions: 2.5 μM

Compound	GPX4% inhibition at 2.5 μM
Cn1nc(C(=O)NC(C)(C)COC(=O)CCl)c2ccc(-c3cc4cc(F)ccc4n3C(=O)OC(C)(C)C)cc21 [QW-659]	−1.2 ± 15.2%
CC(C)Oc1ncc(-c2ccc3c(-n4cc(C(C)(C)COC(=O)CCl)nn4)nn(C)c3c2)cn1 [QW-760]	14.6 ± 12.4%
COc1c(Cl)cc(-c2ccc3c(-n4cc(C(C)(C)COC(=O)CCl)nn4)nn(C)c3c2)cc1C(F)(F)F [QW-817]	75.3 ± 14.5%

Continued, values first:

GPX4% inhibition at 2.5 μM	Compound
42.6 ± 8.0%	Cn1nc(C(=O)NC(C)(C)COC(=O)CCl)c2ccc(-c3ccc(C(=O)N4CCN(C(=O)OC(C)(C)C)CC4)cc3)cc21 [QW-619]
36.2 ± 4.1%	Cn1nc(C(=O)NCC(C)(C)OC(=O)CCl)c2ccc(-c3ccc(N4CCOCC4)c(Cl)c3)cc21 [QW-775]
25.4 ± 12.0%	Cn1nc(-n2cc(CCOC(=O)CCl)nn2)c2ccc(-c3ccc(OC(F)(F)F)c(Cl)c3)cc21 [QW-764]
−4.9 ± 21.8%	COC(=O)c1ccc(-c2ccc3c(C(=O)NC(C)(C)CNC(=O)CCl)nn(C)c3c2)cc1Cl [QW-632]
−1.0 ± 32.8%	CCOc1ccc(-c2ccc3c(C(=O)NCC(C)(C)OC(=O)CCl)nn(C)c3c2)cc1Cl [QW-782]
45.5 ± 4.4%	Cn1nc(C(=O)NC(C)(C)COC(=O)CCl)c2ccc(-c3ccc(Br)cc3)cc21 [QW-603]
66.2 ± 5.4%	COc1ccc(-c2ccc3c(C(=O)NC(C)(C)COC(=O)CCl)nn(C)c3c2)c(Cl)c1Cl [QW-826]
−2.2 ± 5.0%	Cn1nc(-c2nnc(C(C)(OC(=O)CCl)C(F)(F)F)o2)c2ccc(-c3ccc(N4CCOCC4)c(Cl)c3)cc21 (centres unmarked) [QW-700]

Same assay, conditions: 2.5 μM; generation 2

Compound	GPX4% inhibition at 2.5 μM
Cn1nc(C(=O)NC(COC(=O)CCl)C(F)(F)F)c2ccc(Br)cc21 (centres unmarked) [QW-683]	−37.4 ± 5.2%
Cn1nc(C(=O)NC(C)(C)CC(=O)N2CCN(C(=O)CCl)CC2)c2ccc(Br)cc21 [QW-638]	39.0 ± 26.2%
Cn1nc(-c2nnc(C(C)(OC(=O)CCl)C(F)(F)F)o2)c2ccc(Br)cc21 (centres unmarked) [QW-694]	10.6 ± 5.8%

Same assay, conditions: 5 μM

Compound	GPX4% inhibition at 5 μM
COc1ccc(Cl)cc1-c1ccc2c(C(=O)NC(C)(C)COC(=O)CCl)nn(C)c2c1 [QW-590]	53.5 ± 6.3%
Cn1nc(C(=O)NC(C)(C)COC(=O)CCl)c2ccc(-c3cc4cc(F)ccc4n3C(=O)OC(C)(C)C)cc21 [QW-659]	8.5 ± 13.4%
Cn1nc(C(=O)NC(C)(C)COC(=O)CCl)c2ccc(-c3ccc(F)c(F)c3)cc21 [QW-500]	57.5 ± 5.3%
Cn1nc(C(=O)NC(C)(C)COC(=O)CCl)c2ccc(-c3cccc(OC(=O)CCl)c3)cc21 [QW-510]	67.2 ± 1.9%
Cn1nc(C(=O)NC(C)(C)COC(=O)CCl)c2ccc(-c3cccc([N+](=O)[O-])c3)cc21 [QW-452]	55.0 ± 5.8%
CC(C)Oc1ccc(Cl)cc1-c1ccc2c(C(=O)NC(C)(C)COC(=O)CCl)nn(C)c2c1 [QW-495]	22.9 ± 7.5%
C=Cc1ccc(-c2ccc3c(C(=O)NC(C)(C)COC(=O)CCl)nn(C)c3c2)cc1 [QW-554]	41.4 ± 4.5%

Results, then the compound that gave them:

GPX4% inhibition at 5 μM	Compound
44.8 ± 6.6%	Cn1nc(C(=O)NC(C)(C)COC(=O)CCl)c2ccc(C3=CCc4ccccc43)cc21 [QW-514]
67.5 ± 3.9%	CN(C)c1ccc(-c2ccc3c(C(=O)NC(C)(C)COC(=O)CCl)nn(C)c3c2)cc1 [QW-568]
82.5 ± 5.2%	COC(=O)c1ccc(-c2ccc3c(C(=O)NC(C)(C)COC(=O)CCl)nn(C)c3c2)cc1Cl [QW-571]
49.6 ± 4.5%	Cn1nc(C(=O)NC(C)(C)COC(=O)CCl)c2ccc(-c3ccc(CN4CCOCC4)cc3)cc21 [QW-539]
77.1 ± 10.4%	Cn1nc(C(=O)NC(C)(C)COC(=O)CCl)c2ccc(-c3cccc(F)c3)cc21 [QW-493]

Same assay, conditions: 5 μM; generation 2

Compound	GPX4% inhibition at 5 μM
Cn1nc(C(=O)NCCCCC=O)c2ccc(Br)cc21 [QW-527]	−24.5 ± 0.5%
C=CC(=O)OCC(C)(C)NC(=O)c1nn(C)c2cc(Br)ccc12 [QW-417]	−5.2 ± 10.0%
CC(C)(COC(=O)CCl)NC(=O)c1nc2cc(Br)ccc2[nH]1 [QW-407]	−14.3 ± 5.2%

Second part, the compound after the results:

GPX4% inhibition at 5 μM	Compound
−10.7 ± 7.8%	Cn1nc(C(=O)NCCCCCC(O)S(=O)(=O)[O-])c2ccc(Br)cc21.[Na+] (centres unmarked) [QW-517]
−2.3 ± 2.3%	Cc1cc(C(=O)OCC(C)(C)NC(=O)c2nn(C)c3cc(Br)ccc23)no1 [QW-429]
4.5 ± 17.8%	Cn1nc(C(=O)NC(C)(C)CC(O)S(=O)(=O)[O-])c2ccccc21.[Na+] (centres unmarked) [QW-394]
62.1 ± 2.4%	Cn1nc(C(=O)NC(C)(C)COC(=O)CCl)c2ccc([N+](=O)[O-])cc21 [QW-380]

Same assay, conditions: 20 μM; generation 2

Compound	GPX4% inhibition at 20 (μM)
Cn1nc(C(=O)NC(C)(C)C(O)S(=O)(=O)[O-])c2ccccc21.[Na+] (centres unmarked) [QW-389]	32.2 ± 2.5%
Cc1onc(C(=O)N2CCN(C(=O)c3nn(C)c4ccccc34)CC2)c1[N+](=O)[O-] [QW-371]	2.9 ± 2.2%
Cn1nc(C(=O)NC(C)(C)C=O)c2ccccc21 [QW-387]	4.1 ± 4.7%
Cn1nc(C(=O)NC(C)(C)COC(=O)C(F)Cl)c2ccccc21 (centres unmarked) [QW-374]	1.6 ± 3.0%

Same assay, conditions: 200 μM; generation 1; mean ± s.d., n = 3

Compound	GPX4% inhibition at 200 (μM)
CC(C)(COC(=O)CBr)NC(=O)c1cc2ccccc2[nH]1 [QW-160]	33.3 ± 6.0%
Cn1c(C(=O)NC(C)(C)COC(=O)CCl)cc2ccc(Br)cc21 [QW-321]	90.3 ± 4.8%
Cc1ccc2[nH]c(C(=O)NC(C)(C)COC(=O)CBr)cc2c1 [QW-161]	65.0 ± 7.2%
COc1ccc2cc(C(=O)NC(C)(C)COC(=O)CBr)[nH]c2c1 [QW-162]	103.8 ± 7.6%
C=CC(=O)OCC(C)(C)NC(=O)c1cc2cc([N+](=O)[O-])ccc2[nH]1 [QW-172]	16.1 ± 16.0%
CC(C)(COC(=O)CBr)NC(=O)c1cc2ccccc2s1 [QW-275]	63.1 ± 3.6%
C=CC(=O)OCC(C)(C)NC(=O)c1c[nH]c2ccccc12 [QW-282]	12.7 ± 4.7%
CC(C)(COC(=O)CBr)NC(=O)Cc1cc2ccccc2[nH]1 [QW-266]	48.8 ± 3.3%

Results, then the compound that gave them:

GPX4% inhibition at 200 (μM)	Compound
61.2 ± 11.3%	CC(C)(COC(=O)CCl)NC(=O)Cc1cc2ccccc2[nH]1 [QW-265]
41.1 ± 4.6%	CC(C)(COC(=O)CBr)NC(=O)c1cccs1 [QW-260]
42.6 ± 7.0%	CC(C)(COC(=O)CCl)NC(=O)c1cc2cc(F)ccc2[nH]1 [QW-338]
14.0 ± 8.6%	C=CC(=O)OCC(C)(C)NC(=O)c1cc2ccc(Br)cc2[nH]1 [QW-169]
−6.6 ± 8.5%	Cc1onc(C(=O)OCC(C)(C)NC(=O)c2c[nH]c3ccccc23)c1[N+](=O)[O-] [QW-283]
1.8 ± 8.0%	C=CC(=O)OCC(C)(C)NC(=O)c1cc2ccccc2[nH]1 [QW-166]
67.2 ± 3.4%	Cn1cc(C(=O)NC(C)(C)COC(=O)C#C[Si](C)(C)C)c2ccc(Br)cc21 [QW-337]
20.6 ± 9.0%	CC(C)(COC(=O)CCl)NC(=O)c1ccc[nH]1 [QW-290]

Same assay, conditions: concentration not given

Compound	GPX4 inhibition rate
CN(C)c1ccc(-c2ccc3c(C(=O)NC(C)(C)COC(=O)CCl)nn(C)c3c2)cc1 [QW-568]	50%
Cn1nc(C(=O)NC(C)(C)COC(=O)CCl)c2ccc(-c3cccc([N+](=O)[O-])c3)cc21 [QW-452]	50%
